Values quoted from earlier work as cited in paper PMC11289879 (RSC Chemical Biology, 2024).

Tests used:
acute heart failure = settings: clinical trial (Novartis; second phase III)

Substance | solubility in an acidic solvent | effect on the treatment of acute heart failure (acute heart failure)
DSWMEEVIKLCGRELVRAQIAICGMSTWS [B-chain] | poorly soluble | –
Human relaxin-2 [H2 relaxin] | – | no significant effect
